In patent US20100316655A1, “COMPOUNDS WITH MDR1-INVERSE ACTIVITY” (priority 2008, published 2010):

How the values were obtained:
[1] = system: KB-V1 adenocarcinoma cell line; test: MTT cytotoxicity assay, P-gp (MDR1) expressing KB-V1 cells; MDR1 selectivity vs KB-3-1; assay type: cell-based, human; settings: for IC50: MTT, 72 hours; for MDR1 selectivity / MDR1 select.: ratio of IC50 against KB-3-1 divided by IC50 against KB-V1; for MDR1 selectivity: >1 = MDR1-inverse activity; for MDR1-inverse selectivity (in words): Example 3, Table 1, KB-V1 vs KB-3-1
Experimental: (§1) Exemplary compounds were also tested against the KB-V1 adenocarcinoma cell line that expresses high levels of P-gp (the protein product of MDR1). […] MDR1 selectivity is determined by the ratio of IC50 against KB-3-1 cells divided by its IC50 against KB-V1 cells.
(§2) This example describes evaluation of compounds using the MTT cytotoxicity assay. Cell survival was measured by the MTT (3-(4,5-dimethylthiazol-2-yl)-2,5-diphenyltetrazolium bromide) assay as previously described by Ludwig, J. A. et al. Selective toxicity of NSC73306 in MDR1-positive cells as a new strategy to circumvent multidrug resistance in cancer. […] Briefly, cells were seeded in […] of growth medium at a density of 5000 cells/well in 96-well plates and allowed to establish for 24 hours, at which time serially diluted drugs were added in an additional […] growth medium. Cells were then incubated for 72 hours at 37° C. in humidified 5% CO2, at which time the growth media was drawn, and replaced with MTT in IMDM growth media and incubated for 4 hours. The MTT solution was then drawn from the wells, and […] acidified ethanol solution was added to each well and after 15 minutes absorption at 560 nm was measured.

[2] = system: KB-3-1 adenocarcinoma cells; test: MTT cytotoxicity assay, parental P-gp-negative KB-3-1 cells; assay type: cell-based, human
Experimental: as §1, §2

[3] = Homo sapiens, Table 1, KB-V1 (high P-gp)
[4] = Homo sapiens, Table 1, 72 hours, KB-3-1 (P-gp-negative)
[5] = Homo sapiens, KB-V1, Table 2, unit inferred
[6] = Homo sapiens, KB 3-1, Table 2, 72 hours, unit inferred
[7] = Table 2, 72 hours, unit inferred

SMILES	IC50 [1, 3]	IC50 [2, 4]	MDR1 select. ([1]; Table 2)	IC50 ([1]; Table 2, unit inferred)	IC50 [2, 7]	other results
COc1ccc(NC(=S)N/N=C2\C(=O)Nc3ccc([N+](=O)[O-])cc32)cc1 [drawing 39]	6.7 ± 2.9 µM	26.3 ± 5.5 µM				MDR1 selectivity ([1]; Table 1): 4.0
Cc1ccc(NC(=S)N/N=C2\C(=O)Nc3ccccc32)cc1 [Compound M16, 1-Isatin-4-(4′-methylphenyl)thiosemicarbazone]			9.23			IC50 [1, 5]: 2.6 µM; IC50 [2, 6]: 24 µM
C=CCNC(=S)N/N=C1\C(=O)Nc2ccccc21 [drawing 40]	20.7 ± 7.7 µM	26.1 ± 2.6 µM				MDR1 selectivity ([1]; Table 1): 1.3
CN(C)c1ccc(NC(=S)NN=C2C(=O)Nc3ccccc32)cc1 [Compound M3, 1-Isatin-4-(4′-(dimethylamino)phenyl)-3-thiosemicarbazone]			2.99	2.23 µM	6.95 µM	
COc1ccc(NC(=S)NN=C2Cc3ccccc3C2)cc1	> 50 µM	> 50 µM				
O=C1Nc2ccc(Br)cc2/C1=N/NC(=S)Nc1ccc([N+](=O)[O-])cc1 [drawing 23]	4 ± 0.6 µM	28.4 ± 5.2 µM				MDR1 selectivity ([1]; Table 1): 7.1
O=C1Nc2ccccc2C1=O	> 50 µM	> 50 µM				
O=C1Nc2ccccc2C1=NNC(=S)NC1CCCCC1 [Compound M2, 1-Isatin 4-cyclohexyl-3-thiosemicarbazone]			2.09	4.38 µM	9.14 µM	
O=C1Nc2ccccc2C1=NNC(=S)Nc1ccc(Cl)cc1 [Compound M12, 1-Isatin-(4′-chlorophenyl)-3-thiosemicarbazone]			2.68	4.99 µM	13.4 µM	
O=C1Nc2ccc(F)cc2/C1=N/NC(=S)Nc1ccc(F)cc1 [Compound M10, 1-(5′-fluoroisatin)-4-(4′-fluorophenyl)-3-thiosemicarbazone]			4.07			IC50 [1, 5]: 0.91 µM; IC50 [2, 6]: 3.72 µM
COc1ccc(NC(=S)N/N=C2\C(=O)Nc3ccc(F)cc32)cc1 [drawing 34]	5.2 ± 1.1 µM	39.3 ± 23.3 µM				MDR1 selectivity ([1]; Table 1): 7.5
COc1ccccc1NC(=S)NN=C1C(=O)Nc2ccccc21 [Compound M18, 1-isatin-4-(2′-methoxyphenyl)-3-thiosemicarbazone]			1.84	2.69 µM	4.96 µM	
CC(C)NC(=S)NN=C1C(=O)Nc2ccccc21 [Compound M15, 1-Isatin-4-isopropyl-3-thiosemicarbazone]			3.84	10.2 µM	39.4 µM	
O=C1Nc2ccc(Br)cc2/C1=N/NC(=S)Nc1ccc(F)cc1 [NSC716771, 1-(5′-Bromoisatin)-4-(4′-fluorophenyl)-3-thiosemicarbazone]						MDR1-inverse selectivity (in words) [1]: MDR1-inverse selectivity
COc1ccc(NC(=S)N/N=C2\C(=O)Nc3ccc(S(=O)(=O)O)cc32)cc1	> 50 µM	> 50 µM				
O=C1Nc2ccccc2C1=NNC(=S)Nc1ccccc1 [Compound M8, 1-Isatin-(phenyl)-3-thiosemicarbazone]			2.40	1.47 µM	3.53 µM	
COc1ccc(NC(=S)N/N=C2\C(=O)N(C)c3ccccc32)cc1 [drawing 35]	9.3 ± 2.8 µM	19.6 ± 1.7 µM				MDR1 selectivity ([1]; Table 1): 2.1
COc1ccc(NC(=O)N/N=C2\C(=O)Nc3ccccc32)cc1	> 50 µM	27.7 ± 3.3 µM				
CNC(=S)NN=C1C(=O)Nc2ccccc21 [Compound M1, 1-Isatin-4-methyl-3-thiosemicarbazone]			1.82	19.4 µM	35.3 µM	
Cc1cnc(/C=N/NC(N)=S)c2cccc(N)c12	2.1 ± 0.3 µM	1.9 ± 0.8 µM				MDR1 selectivity ([1]; Table 1): 0.9
COc1ccc(NC(=S)N/N=C/c2ccccn2)cc1 [Compound 10, 1-(2′-Pyridinecarboxaldehyde)-4-(4′-methoxyphenyl)-3-thiosemicarbazone]						MDR1-inverse selectivity (in words) [1]: MDR1-inverse selectivity
COc1ccc(NC(=S)N/N=C/c2ccccn2)cc1 [drawing 37]	2.4 ± 0.5 µM	3.4 ± 1.5 µM				MDR1 selectivity ([1]; Table 1): 1.4
COc1ccc(NC(=S)N/N=C2\C(=O)Nc3ccc(F)cc32)cc1 [Compound 7, 1-(5′-Fluoroisatin)-4-(4′-methoxyphenyl)-3-thiosemicarbazone]						MDR1-inverse selectivity (in words) [1]: MDR1-inverse selectivity
O=C1Nc2ccccc2C1=NNC(=S)NC12CC3CC(CC(C3)C1)C2 [Compound M22, 1-isatin-4-(1′-adamantyl)-3-thiosemicarbazone]			3.09	1.02 µM	3.16 µM	

SMILES	IC50 [1, 3]	IC50 [2, 4]	MDR1 select. ([1]; Table 2)	IC50 ([1]; Table 2, unit inferred)	IC50 [2, 7]	other results
O=C1Nc2ccccc2C1=NNC(=S)Nc1cccc2ccccc12 [Compound M20, 1-isatin-4-(1′-napthyl)-3-thiosemicarbazone]			2.32	2.21 µM	5.12 µM	
O=C1Nc2ccc(Br)cc2/C1=N/NC(=S)Nc1ccc([N+](=O)[O-])cc1 [NSC716772, 1-(5′-Bromoisatin)-4-(4′-nitrophenyl)-3-thiosemicarbazone]						MDR1-inverse selectivity (in words) [1]: MDR1-inverse selectivity
COc1ccc(NC(=S)N/N=C2\C(=O)Nc3ccc([N+](=O)[O-])cc32)cc1 [Compound 12, 1-(5′-Nitroisatin)-4-(4′-methoxyphenyl)-3-thiosemicarbazone]						MDR1-inverse selectivity (in words) [1]: MDR1-inverse selectivity
O=C1Nc2ccccc2C1=NNC(=S)Nc1ccccc1Cl [Compound M5, 1-Isatin-(2′-chlorophenyl)-3-thiosemicarbazone]			1.89	1.17 µM	2.22 µM	
O=C1Nc2ccccc2/C1=N/NC(=S)Nc1ccc([N+](=O)[O-])cc1 [Compound M17, 1-Isatin-4-(4′-nitrophenyl)thiosemicarbazone]			8.27			IC50 [1, 5]: 2.07 µM; IC50 [2, 6]: 17.2 µM
COc1ccc(NC(=S)N/N=C2\C(=O)Nc3c2ccc2ccccc32)cc1	30.3 ± 5.9 µM	4.4 ± 3.6 µM				MDR1 selectivity ([1]; Table 1): 0.1
CCCCNC(=S)NN=C1C(=O)Nc2ccccc21 [Compound M11, 1-Isatin-4-butyl-3-thiosemicarbazone]			1.91	5.69 µM	10.9 µM	
COc1ccc(NC(=S)N/N=C2\C(=O)N(C)c3ccccc32)cc1 [Compound 8, 1-(N-methylisatin)-4-(4′-methoxyphenyl)-3-thiosemicarbazone]						MDR1-inverse selectivity (in words) [1]: MDR1-inverse selectivity
O=C1Nc2ccccc2/C1=N/NC(=S)Nc1c(F)cc(F)cc1F [Compound M13, 1-Isatin-4-(2′,4′,6′-trifluorophenyl)thiosemicarbazone]			5.27			IC50 [1, 5]: 7.28 µM; IC50 [2, 6]: 38.4 µM
NC(=S)N/N=C/c1ncccc1N	5.9 ± 2.6 µM	1.4 ± 2.5 µM				MDR1 selectivity ([1]; Table 1): 0.2
COc1ccc(NC(=S)NN)cc1	> 50 µM	> 50 µM				
COc1ccc(NC(=S)N/N=C/c2ccc(NC(C)=O)cc2)cc1	> 50 µM	> 50 µM				
NC(=O)N/N=C1\C(=O)Nc2ccccc21	> 50 µM	> 50 µM				
O=C1Nc2ccc(Br)cc2/C1=N/NC(=S)Nc1ccc(F)cc1 [drawing 22]	5.8 ± 2.5 µM	13.1 ± 4.8 µM				MDR1 selectivity ([1]; Table 1): 2.3
O=C1Nc2ccccc2C1=NNC(=S)Nc1ccc(C(F)(F)F)cc1 [Compound M9, 1-Isatin-4-(4′-(trifluoromethyl)phenyl)-3-thiosemicarbazone]			4.09	2.1 µM	8.59 µM	
O=C1Nc2ccccc2C1=NNC(=S)Nc1ccc(O)cc1 [Compound M4, 1-Isatin-(4′-hydroxyphenyl)-3-thiosemicarbazone]			1.66	21.6 µM	35.8 µM	
COc1ccc(NC(=S)N/N=C2\CCc3ccccc32)cc1	> 50 µM	> 50 µM				
NC(=S)N/N=C1\C(=O)Nc2ccccc21	> 50 µM	> 50 µM				
O=C1Nc2ccccc2C1=NNC(=S)Nc1ccc(C(=O)O)cc1 [Compound M19, 1-isatin-4-(4′-carboxyphenyl)-3-thiosemicarbazone]			1.00	> 50 µM	> 50 µM	
C=CCNC(=S)N/N=C1\C(=O)Nc2ccccc21 [Compound 13, 1-Isatin-4-allyl-3-thiosemicarbazone]						MDR1-inverse selectivity (in words) [1]: MDR1-inverse selectivity
COc1ccc(NC(=S)NN=C2C(=O)Nc3ccccc32)cc1 [NSC73306, 1-Isatin-4-(4′ methoxyphenyl)thiosemicarbazone, reference compound]			4.3	3.3 µM	14.2 µM	MDR1-inverse selectivity (in words) [1]: MDR1-inverse selectivity
O=C1Nc2ccccc2/C1=N/NC(=S)Nc1ccc(F)cc1 [Compound M14, 1-Isatin-4-(4′-fluorophenyl)thiosemicarbazone]			7.36			IC50 [1, 5]: 1.92 µM; IC50 [2, 6]: 14.2 µM
O=C1Nc2ccc([N+](=O)[O-])cc2C1=NNC(=S)Nc1ccccc1 [NSC716766, 1-(5′-Nitroisatin)-4-phenyl-3-thiosemicarbazone]						MDR1-inverse selectivity (in words) [1]: MDR1-inverse selectivity
